According to US4786755A, “Diphenic acid monoamides” (Warner-Lambert Company, priority 1986, dated 1988):

Target: T1, leukotriene receptor (Cavia porcellus, UniProt Q2NNR5)
T1 construct: 20 mg original tissue wet weight of guinea pig lung membranes; tissue Kuiper Rabbit Farm, Gary, IN (animals); host or cells: guinea pig lung, crude membranes
T1 sequence (Q2NNR5 1-340): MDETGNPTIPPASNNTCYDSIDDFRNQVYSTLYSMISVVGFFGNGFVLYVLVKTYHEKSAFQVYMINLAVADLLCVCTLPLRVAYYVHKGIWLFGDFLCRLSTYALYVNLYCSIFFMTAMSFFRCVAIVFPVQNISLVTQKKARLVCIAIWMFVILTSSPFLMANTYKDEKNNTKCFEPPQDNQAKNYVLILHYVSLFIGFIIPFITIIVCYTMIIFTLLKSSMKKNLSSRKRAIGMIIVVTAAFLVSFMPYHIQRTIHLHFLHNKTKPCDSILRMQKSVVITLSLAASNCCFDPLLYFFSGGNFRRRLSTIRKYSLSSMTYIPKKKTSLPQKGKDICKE
Test: Binding of ^3 H-Leukotriene D4 to Guinea Pig Lung Membranes (RBL)
Conditions: ^3 H-LTD4, guinea pig lung membranes; read-out: IC50 RBL1
Protocol: Additionally, the activity, of the compounds having the Formula I of the present invention is determined by the well known leukotriene receptor binding assay that is described by R. F. Bruns, W. J. Thomsen and T. A. Pugsley in Life Sciences, 33, 645 (1983) or the Herxheimer in vivo antiallergy test described in H. Herxheimer, J. Physiol. (London), Vol. 177, p. 251 (1952).
Binding of ^3 H-Leukotriene D4 to Guinea Pig Lung Membranes (RBL)
[14,15-^3 H]leukotriene D4 (^3 H-LTD4) (25 Ci/mmol and 40 Ci/mmol) is purchased from New England Nuclear. Unlabeled LTC4 is a gift of Ono Pharmaceuticals (Japan). LTC4, LTD4, and LTE4 are purchased as methyl esters from Paesel GmbH (Frankfurt, W. Germany). Concentrations of the Paesel leukotrienes are calculated from their absorbance at 280 nm. Leukotriene esters are saponified overnight under N2 in 3.3% potassium carbonate at room temperature. Tritiated leukotrienes are stored as received from New England Nuclear at -20° C. Ono LTC4 (5 μg/ml is stored at -60° C. in phosphate buffer pH 6.8. Saponified Paesel leukotrienes are stored at -60° C. in 3.3% potassium carbonate (pH 9.0-9.5). Aliquots of leukotrienes are taken from stock solutions immediately after thawing, after which the stock solutions are immediately refrozen. 2-Amino-2-(hydroxymethyl)-1,3-propanediol (Tris) is Sigma pH 7.7 pre-set crystals, and dimethylsulfoxide is Aldrich Gold Label.
Preparation of crude lung membranes
Two pairs of lungs (1.3 g) from freshly sacrificed 300 g male guinea pigs (older animals gave substantially lower binding) from Kuiper Rabbit Farm, Gary, IN are disrupted with a Polytron PT 10 (setting 4) for 30 seconds in 20 ml ice-cold 50 mM Tris adjusted with HCl to pH 7.7 at 25° C. (Tris buffer), filtered through a single layer of gauze to remove connective tissue, and centrifuged at 50,000 xg for ten min. The pellet is resuspended by homogenization with a Polytron in 20 ml Tris buffer, centrifuged at 50,000 xg for ten min., resuspended, incubated at 37° C. for 30 minutes, and centrifuged again. The final pellet is resuspended in Tris buffer and either used fresh or stored at -70° C.
All incubations are in triplicate for 60 minutes at 25° C. in 12×75 mm polystyrene tubes containing 1 ml Tris buffer with 20 mg original tissue wet weight of guinea pig lung membranes, 0.2 nM ^3 H-LTD4 (6,000-11,000 cpm), 10 mM MgCl2, and 1% dimethylsulfoxide. Leukotrienes are diluted in Tris buffer. All other test compounds are dissolved at 10 mM in dimethylsulfoxide on the same day as the experiment, and diluted in dimethylsulfoxide to 100× the final incubation concentration. Control incubations receive an equal volume (10 μl) of dimethylsulfoxide; the resulting concentration of dimethylsulfoxide had no effect on binding. ^3 H-LTD4 is diluted to 2 nM in Tris buffer. The membrane suspension (20 mg/0.89 ml) contains sufficient MgCl2 to give 10 mM final concentration in the incubation. […] All additions are performed at 0° C. Immediately after the last addition, the incubation is initiated by agitating the rack of tubes on a vortex mixer and warming to 25° C. in a water bath. Tubes are vortexed at least once more during the incubation to ensure that the membranes remained suspended. Incubations are terminated after 60 minutes by filtering under reduced pressure through 25 mm Whatman GF/B filters followed by rapid washing three times with 4 ml of ice-cold Tris buffer. Filters are added to scintillation vials with 8 ml Formula 947 (New England Nuclear), left overnight, shaken, and the radioactivity counted in a scintillation counter (efficiency 40%). Nonspecific binding, defined as binding of ^3 H-LTD4 in the presence of 100 nM LTC4, is 300-500 cpm for all lots of ^3 H-LTD4. Binding to the filters in the absence of tissue is about 100 cpm, and is not affected by unlabeled LTC4. Specific binding, defined as total binding minus nonspecific binding, varied considerably from lot to lot of ^3 H-LTD4. […]

IC50 [µM]	SMILES
4.6	O=C(O)c1ccccc1-c1ccccc1C(=O)Nc1ccc(OCCCc2ccccc2)cc1 [Example 2]
4.3	O=C(O)c1ccccc1-c1ccccc1C(=O)Nc1ccc(CCCc2ccccc2)cc1 [Example 16, [1,1'-Biphenyl]-2-carboxylic acid, 2'-[[[4-(3-phenylpropyl]phenyl]amino]carbonyl]-]
14.5	CN(C(=O)c1ccccc1-c1ccccc1C(=O)O)c1ccc(CCc2ccc(Cl)c(Cl)c2)cc1 [Example 5, [1,1'-Biphenyl]-2-carboxylic acid, 2'-[[[4-[2-(3,4-dichlorophenyl)ethyl]phenyl]methylamino]carbonyl]-]
88.7	COc1ccc(CCc2ccc(NC(=O)c3ccccc3-c3ccccc3C(=O)O)cc2)cc1OC [Example 7, [1,1'-Biphenyl]-2-carboxylic acid, 2'-[[[4-[2-(3,4-dimethoxyphenyl)ethyl]phenyl]amino]carbonyl]-]
6.7	O=C(O)c1ccccc1-c1ccccc1C(=O)Nc1ccc(CCCCc2ccccc2)cc1 [Example 19, [1,1'-Biphenyl]-2-carboxylic acid, 2'-[[[4-(4-phenylbutyl)phenyl]amino]carbonyl]-]
4.8	O=C(O)c1ccccc1-c1ccccc1C(=O)Nc1ccc(CCc2ccc(Cl)c(Cl)c2)cc1 [Example 3, [1,1'-Biphenyl]-2-carboxylic acid, 2'-[[[4-[2-(3,4-dichlorophenyl)ethyl]phenyl]amino]carbonyl]-]
1	O=C(O)c1ccccc1-c1ccccc1C(=O)Nc1ccc(CCCc2ccc(Cl)c(Cl)c2)cc1 [Example 1, [1,1'-Biphenyl]-2-carboxylic acid, 2'-[[[4-[3-(3,4-dichlorophenyl)propyl]phenyl]amino]carbonyl]-]
13.5	O=C(O)c1ccccc1-c1ccccc1C(=O)Nc1ccc(CCc2ccc(Cl)cc2)cc1 [Example 11, [1,1'-Biphenyl]-2-carboxylic acid, 2'-[[4-[2-[(4-chlorophenyl)ethyl]phenyl]amino]carbonyl]-]
8.5	O=C(O)c1ccccc1-c1ccccc1C(=O)Nc1cccc(CCc2ccc(Cl)c(Cl)c2)c1 [Example 4, [1,1'-Biphenyl]-2-carboxylic acid, 2'-[[[3-[2-(3,4-dichlorophenyl)ethyl]phenyl]amino]carbonyl]-]
2.3	O=C(O)c1ccccc1-c1ccccc1C(=O)Nc1ccc(CCCCCc2ccccc2)cc1 [Example 21, [1,1'-Biphenyl]-2-carboxylic acid, 2'-[[[4-(5-phenylpentyl)phenyl]amino]carbonyl]-]
28.7	CN(C(=O)c1ccccc1-c1ccccc1C(=O)O)c1ccc(CCc2ccc(Cl)cc2)cc1 [Example 8]
6.5	O=C(O)c1ccccc1-c1ccccc1C(=O)Nc1ccc(Cc2ccc(Cl)c(Cl)c2)cc1 [Example 9]
4.2	O=C(O)c1ccccc1-c1ccccc1C(=O)Nc1ccc(CCCCc2ccc(Cl)c(Cl)c2)cc1 [Example 15, [1,1'-Biphenyl]-2-carboxylic acid, 2'-[[[4-[4-(3,4-dichlorophenyl)butyl]phenyl]amino]carbonyl]-]
